Some test systems named below: UACC-257 melanoma; OVCAR-4 ovarian; LXFL 529 NSCLC; K-562 leukemia; SNB-78 CNS; DLD-1 colon; KM20L2 colon; SK-MEL-2 melanoma; DMS 273 small cell lung; HCT-15 colon; XF 498 CNS; M19-MEL melanoma; DMS 114 small cell lung; HOP-18 NSCLC; PC-3 prostate.
Holding throughout (assay): NCI-60 cell line screen, 48 h

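Method: 48-hour compound exposure of cells in 96-well plates, five concentrations, linear interpolation of endpoints. GI50 is the concentration that inhibits growth by half. TGI: total growth inhibition.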 Bounds are passed on as bounds.

From PubChem BioAssay (NCI) come the findings set out here.

For `N.N.N.N.O=S(=O)([O-])[O-].[Co+3].[OH3+].[OH3+]`, the TGI in the experiment on UACC-257 melanoma, in the experiment with OVCAR-4 ovarian, in the experiment on LXFL 529 NSCLC, in the experiment with K-562 leukemia, in the experiment on SNB-78 CNS and in the experiment on DLD-1 colon was above 100 µM in each case. Further, the TGI in the experiment with KM20L2 colon, in the experiment with SK-MEL-2 melanoma, in the experiment on DMS 273 small cell lung and in the experiment on HCT-15 colon was above 100 µM each time. For the same compound, the GI50 with LXFL 529 NSCLC is above 100 µM.

Turning to `CCC(/C=C/c1ccccc1)=N\N=C(\C=C\c1ccccc1)CC`, the TGI with UACC-257 melanoma, with OVCAR-4 ovarian, in the experiment on LXFL 529 NSCLC, in the experiment with K-562 leukemia, in the experiment on XF 498 CNS and in the experiment with SNB-78 CNS was above 100 µM throughout. For the same compound, the TGI in the experiment on M19-MEL melanoma, with DLD-1 colon, in the experiment on KM20L2 colon, with SK-MEL-2 melanoma, in the experiment with DMS 273 small cell lung and in the experiment with HCT-15 colon was above 100 µM in each case.

On to `C=CCn1c(=S)sc2c(=O)[nH]cnc21`, for which the TGI in the experiment with UACC-257 melanoma, in the experiment on OVCAR-4 ovarian, with LXFL 529 NSCLC, with K-562 leukemia, with XF 498 CNS and in the experiment on SNB-78 CNS was above 100 µM in each case. The TGI with M19-MEL melanoma, with DLD-1 colon, with KM20L2 colon, with SK-MEL-2 melanoma, with DMS 273 small cell lung and with DMS 114 small cell lung was above 100 µM each time. The same compound had a TGI in the experiment on HCT-15 colon above 100 µM.

As to `COc1ccc(C2S/C(=C\c3cccc([N+](=O)[O-])c3)C(=O)N2NC(=O)Cc2ccccc2)cc1` (stereo not drawn), the TGI in the experiment with UACC-257 melanoma, in the experiment with OVCAR-4 ovarian, with LXFL 529 NSCLC, in the experiment on K-562 leukemia, with M19-MEL melanoma and in the experiment on HOP-18 NSCLC was above 100 µM throughout. Also, the TGI with DLD-1 colon, in the experiment on SK-MEL-2 melanoma, in the experiment with DMS 273 small cell lung, in the experiment on DMS 114 small cell lung and with HCT-15 colon was above 100 µM in each case.

Turning to `O=C1CSc2ccncc2N1`, the TGI in the experiment on UACC-257 melanoma, in the experiment on OVCAR-4 ovarian, in the experiment with LXFL 529 NSCLC, in the experiment with K-562 leukemia, with XF 498 CNS and in the experiment on M19-MEL melanoma was above 100 µM each time. Moreover, the TGI in the experiment on DLD-1 colon, in the experiment with KM20L2 colon, in the experiment on SK-MEL-2 melanoma, in the experiment on DMS 273 small cell lung, with DMS 114 small cell lung and with HCT-15 colon was above 100 µM each time.

Consider `CCCN1CN(C(C(=O)N[C@@H]2C(=O)N3C(C(=O)O)=C(C)CSC23)c2ccccc2)CSC1=S` (stereo partly drawn), for which the TGI in the experiment with UACC-257 melanoma, in the experiment on OVCAR-4 ovarian, in the experiment on LXFL 529 NSCLC, in the experiment with K-562 leukemia, in the experiment with SNB-78 CNS and in the experiment on M19-MEL melanoma was above 100 µM throughout. Besides, the TGI in the experiment with HOP-18 NSCLC, in the experiment on DLD-1 colon, in the experiment on KM20L2 colon, in the experiment with SK-MEL-2 melanoma, in the experiment with DMS 273 small cell lung and in the experiment on HCT-15 colon was above 100 µM throughout.

Regarding `C[C@]12CCC(=O)C=C1CC[C@@H]1[C@@H]2CC[C@]2(C)C(=O)/C(=C\c3ccccc3)C[C@@H]12`, the TGI in the experiment on UACC-257 melanoma is above 100 µM; in the experiment on OVCAR-4 ovarian, above 100 µM; with K-562 leukemia, above 100 µM; with PC-3 prostate, above 53.3 µM; in the experiment on SK-MEL-2 melanoma it was 46.1 µM; in the experiment with HCT-15 colon, above 100 µM.

`O=C1/C(=C/c2ccc(O)cc2)CCc2ccccc21`: the TGI with UACC-257 melanoma is 35.8 µM; with OVCAR-4 ovarian, above 74.5 µM; with K-562 leukemia, 81.3 µM; with PC-3 prostate it was 39.2 µM; in the experiment on SK-MEL-2 melanoma it was 36 µM; in the experiment on HCT-15 colon, 40.4 µM.

Take `Clc1ccc(-c2cc(-c3nc4ccccc4[nH]3)no2)cc1`: the TGI with UACC-257 melanoma was found to be 36.4 µM; in the experiment with OVCAR-4 ovarian, 51.4 µM; with K-562 leukemia it was 50.2 µM; in the experiment on PC-3 prostate, 48.4 µM; in the experiment on SK-MEL-2 melanoma, 34.7 µM; in the experiment on HCT-15 colon, 45 µM.

Take `O=c1[nH][nH]c(=S)c(=O)[nH]1`: the TGI in the experiment on UACC-257 melanoma, in the experiment on OVCAR-4 ovarian, in the experiment on K-562 leukemia, in the experiment with PC-3 prostate, with SK-MEL-2 melanoma and in the experiment with HCT-15 colon was above 100 µM in each case.

Take `CCOC(=O)c1cc(Cl)ccc1OC(N)=O`: the TGI with UACC-257 melanoma, in the experiment on OVCAR-4 ovarian, in the experiment with K-562 leukemia, with XF 498 CNS, with SNB-78 CNS and in the experiment with M19-MEL melanoma was above 100 µM in each case. Also, the TGI in the experiment on HOP-18 NSCLC, in the experiment on DLD-1 colon, in the experiment with KM20L2 colon, in the experiment with SK-MEL-2 melanoma, in the experiment on DMS 273 small cell lung and in the experiment on DMS 114 small cell lung was above 100 µM in each case. The compound further registered a TGI with HCT-15 colon above 100 µM.
